Experimental data as given in patent US20120122727A1, “IN VITRO METHOD FOR PREDICTING WHETHER A COMPOUND IS GENOTOXIC IN VIVO” (priority 2009, published 2012).

Legend:
[1] = in vivo; cited from earlier work
[2] = tested on: primary mouse hepatocytes; experiment: Gene expression (Affymetrix Mouse Genome 430 2.0) in primary mouse hepatocytes, true vs false GTX, 24 h and 48 h

Cl.ClCc1ccccn1 [2-CP, 2-(Chloromethyl)pyridine.HCl]
GTX in vivo [1]: −
Gene expression AA561726 average [2]: −0.4297
Gene expression AF000969 average [2]: 0.2944
Gene expression AF022072 average [2]: 0.04067
Gene expression AF033112 average [2]: −0.6651
Gene expression AF055573 average [2]: 0.3686
Gene expression AF069954 average [2]: 0.199
Gene expression AF297615 average [2]: −0.5906
Gene expression AF335325 average [2]: −0.05667
Gene expression AI594683 average [2]: −0.2197
Gene expression AI747296 average [2]: −0.2637
Gene expression AK005731 average [2]: −0.6019
Gene expression AK007854 average [2]: 0.5513
Gene expression AK010447 average [2]: −0.05023
Gene expression AK010738 average [2]: 0.0059
Gene expression AK014608 average [2]: −0.01263
Gene expression AK017734 average [2]: 0.1489
Gene expression AK018383 average [2]: −0.2158
Gene expression AK019979 average [2]: −0.4249
Gene expression AV095209 average [2]: −0.03467
Gene expression AV141095 average [2]: −0.4102
Gene expression AV173869 average [2]: 0.3109
Gene expression AV216768 average [2]: −0.4179
Gene expression AV219418 average [2]: 0.8281
Gene expression AV221299 average [2]: 0.4545
Gene expression AV246296 average [2]: −0.3558
Gene expression AV251625 average [2]: 0.06723
Gene expression AV254764 average [2]: 0.396
Gene expression AV327248 average [2]: −0.2215
Gene expression BB009155 average [2]: −0.348
Gene expression BB027848 average [2]: 0.2054
Gene expression BB043558 average [2]: −0.2293
Gene expression BB046347 average [2]: 0.187
Gene expression BB140436 average [2]: 0.2823
Gene expression BB204486 average [2]: −0.3875
Gene expression BB223872 average [2]: 0.1743
Gene expression BB246912 average [2]: 0.5739
Gene expression BB275142 average [2]: 0.091
Gene expression BB458460 average [2]: −0.1792
Gene expression BB463610 average [2]: 0.0113
Gene expression BB730977 average [2]: −0.7313
Gene expression BB743970 average [2]: −0.1686
Gene expression BB770528 average [2]: −0.4836
Gene expression BB781615 average [2]: 0.007033
Gene expression BC003284 average [2]: −0.2395
Gene expression BC004827 average [2]: −0.2477
Gene expression BC005552 average [2]: 0.1255
Gene expression BC006713 average [2]: 0.2405
Gene expression BC010318 average [2]: 0.1986
Gene expression BC012247 average [2]: 0.5221
Gene expression BC012955 average [2]: 0.2863
Gene expression BC013893 average [2]: 0.4871
Gene expression BC017615 average [2]: −0.3193
Gene expression BC019379 average [2]: −0.1926
Gene expression BC019882 average [2]: 0.8148
Gene expression BC021352 average [2]: −0.7192
Gene expression BC022148 average [2]: 0.1919
Gene expression BC025169 average [2]: 0.9283
Gene expression BC026131 average [2]: 0.4079
Gene expression BC027026 average [2]: −0.2177
Gene expression BC027121 average [2]: −0.6553
Gene expression BC027185 average [2]: 0.06273
Gene expression BE956581 average [2]: 0.0444
Gene expression BF719766 average [2]: −0.1259
Gene expression BG065754 average [2]: −0.2817
Gene expression BG066491 average [2]: −0.3489
Gene expression BG076151 average [2]: −0.0769
Gene expression BG076333 average [2]: 0.4759
Gene expression BG797099 average [2]: 0.004233
Gene expression BG967046 average [2]: −0.1557
Gene expression BI651416 average [2]: −0.08753
Gene expression BI966443 average [2]: −0.01713
Gene expression BM198879 average [2]: −0.1026
Gene expression BM200015 average [2]: −0.3607
Gene expression BM230508 average [2]: −0.2554
Gene expression BM936480 average [2]: −0.07417
Gene expression BQ174991 average [2]: 0.1864
Gene expression L21027 average [2]: −0.5404
Gene expression NM_007556 average [2]: 0.1685
Gene expression NM_007980 average [2]: −0.2848
Gene expression NM_007987 average [2]: −0.3447
Gene expression NM_008522 average [2]: 0.0213
Gene expression NM_008935 average [2]: −0.2124
Gene expression NM_009897 average [2]: −0.06103
Gene expression NM_011075 average [2]: −0.5782
Gene expression NM_011176 average [2]: −0.0046
Gene expression NM_011316 average [2]: 0.5829
